According to patent US4868203A, “Bacterial substance and pharmaceutical composition thereof” (Kabushikikaisha Ueno Seiyaku Oyo Kenkyujo, priority 1986, dated 1989):
≈ marks a conversion by molar mass, not a printed value. Where “and” joins values, the source holds several entries; their conditions need not be identical. Equal entries are not always repeated. Where two headings read alike, the source gives them in different places.

Tests used:
[1] = tested on: Flexibacter columnaris V-II; assay: Minimum growth inhibiting concentration, pathogenic bacteria of fish disease (Test Example 8); type: cell-based; conditions: Flexibacter columnaris V-II (Columnaris disease of eel)
From the text: (§1) The minimum growth inhibitory concentrations (MIC) of the bacterial substance UFC-N11 against various bacteria were according to conventional procedure the results are as follows: […]

[2] = tested on: Aeromonas hydrophila IAM108; assay: as above; type: cell-based; conditions: Aeromonas hydrophila IAM108 (Aeromonas disease of carp)
From the text: as §1

[3] = tested on: Vibrio anguillarum 25-1; assay: as above; type: cell-based; conditions: Vibrio anguillarum 25-1 (Vibrio disease of sweetfish)
From the text: as §1

[4] = tested on: Aeromonas salmonicida, MC7503; assay: as above; type: cell-based; conditions: MC7503 (Furunculosis of salmonids)
From the text: as §1

[5] = tested on: Edwardssiella tarda 4-1; assay: as above; type: cell-based; conditions: Edwardssiella tarda 4-1 (Edwardsiellosis of eel)
From the text: as §1

[6] = tested on: Vibrio anguillarum K-3; assay: as above; type: cell-based; conditions: Vibrio anguillarum K-3 (Vibrio disease of young yellowtail)
From the text: as §1

[7] = Solubility in various solvents
[8] = Absorbance by oral administration, absorption and secretion in yellowtail (Test Example 10); type: in vivo; conditions: oral 100 mg/kg
Experimental: To a cultured yellowtail, UFC-N11 was compulsorily oral-administered at the rate of 100 mg/kg per body weight of fish. The tissue samples were collected 3, 8, and 24 hours later respective in order to determine the concentrations in the tissues.

[9] = tested on: Pseudomonas solanacearum NIAES 1418; type: cell-based; conditions: Pseudomonas solanacearum NIAES 1418 (wilt of solanum)
[10] = Storage life of kamaboko, rot-proof property (Test Example 4)
Experimental: Fish paste was prepared by adding NaCl (2.5%), chemical seasoning (0.8%), starch (5%) and ice water (10%) based on frozen surimi of walleye pollack (4 kg) and cutting by a silent cutter for 10 minutes. Predetermined amount of bacterial substance UFC-N11 based on the resulting fish paste (2 kg) was added and completely mixed in a small mixer for 5 minutes. About 100 g fish paste were enclosed with polyvinylidene chloride film (spread width:45 mm), boiled at 90° C. for 30 minutes, quenched, left overnight and then tested for rot-proof property.
The test was conducted as follows. As the complete package products, 10 pieces/group of kamaboko processed by casing method samples and, as the simplified package products, 10 pieces/group prepared by peeling off the casing under sterilized condition, cutting into 2 round slices (thickness: 10 mm) by a sterilized knife and placing in a sterilized plastic Petri dish. were placed in a thermostatic chamber at 30° C. and evaluated by macroscopically observation. The evaluation uses five-level scale shown below. The period until the average evaluation value of 1 is attained is defined as the storage life.

[11] = tested on: Pseudomonas syringae PV lachrymans NIAES 1316; assay: Evaluation of activity against the bacterial spot of cucumber (Test Example 3); type: in vivo; conditions: 50 ppm
Experimental: Cucumber(Green tokiwa) was used for the test. Potted cucumber plants (2 leaf stage) were sprayed with sufficient amount of 50 ppm solution of bacterial substance UFC-N11 (dissolved in 0.05% aqueous sodium bicarbonate), air-dried, and spray-inoculated 10^8 /ml suspension of Pseudomonas Syringae PV lachrymans NIAES 1316, cultured on Wakimoto medium for 3 days, on both sides of leaves. For the control, an experiment was carried out using a solution without the substance N11 in the same manner as described above. After inoculation, the plants were maintained at 28° C. for 24 hours and maintained in a glass house until the day of evaluation. Six days after inoculation, percentage of spots area affected on the first and second seed leaf was observed and protection value was calculated according to the following formula: [formula] The experiment was repeated using Cu(OH)2 (Kosaid) 83% wettable powder (produced by Hokko chemical Industry Co. Ltd.) as a positive reference. In this case CaCO3 (Kurefunon) (produced by Shiraishi Calcium) was added (×200) in order to reduce damage.

[12] = tested on: Xandomonas campestris PV oryzae H75373; type: cell-based
[13] = tested on: Pasteurella piscicida DM-85 strain; parameters: species or system yellowtail; conditions: in vivo
[14] = Storage life of steamed Chinese noodles (Test Example 5)
Experimental: After kneading for 10 minutes. the product was rolled and cut with cutting edge (#10) to give noodles. The resulting noodles were steamed at the temperature higher than 98° C. for 6 minutes, washed with water, packed in polyethylene packages (each weighing 40 g) and heated at 85° C. for 30 minutes. The obtained packages containing Chinese noodles (10 bags/group) were maintained at 30° C. and the change in appearance with time was observed and preservation effect was evaluated according to the following evaluation scale. The values shown in the following Table are averaged evaluation levels of degeneration.

[15] = tested on: Campylobacter fetus; type: cell-based
Experimental: The minimum growth inhibitory concentration (MIC) values of bacterial substance UFC-N11 to various kinds of bacteria determined according to the conventional method were measured in the conventional manner.

[16] = Preservability of potato salad (Test Example 6); conditions: for Living bacteria: at end of storage life
Experimental: Bacterial substance UFC-N11 was added to potato (300 g), carrot (50 g), sliced onion (60 g), sliced cucumber (80 g), salad oil (15 g), vinegar (12. 5 g), NaCl (2 g), pepper (0.05 g) and mayonnaise (100 g) (total: ca 620 g) to prepare potato salad. Test samples (20 g/group) were packed in 200 ml mayonnaise bottles, sealed and examined for the preservability at 30° C. Potato and carrot were boiled and cut into appropriate size before use. The period until emission of a putrid smell is defined as effective storage life. General living bacterial number of samples at that time was also measured.

[17] = tested on: Xanthomonas campestris PV citri; conditions: for Prevention: sprayed 24 hours after inoculation, 14 days
[18] = tested on: Pasteurella piscicida KGP86041; type: cell-based
[19] = tested on: Pasteurella piscicida; assay: microbe, parasite or virus in culture; type: cell-based

CC=CC=CC=CC(=O)NC(CC(=O)NC(C(=O)C1C(=O)NC(=O)C1C)C(C)C)c1ccccc1 (centres unmarked) [UFC-N11]
MIC [1]: 0.63 µg/mL (≈ 1.31 µM)
MIC [2]: 5.0 µg/mL (≈ 10.4 µM)
MIC [3]: 2.5 µg/mL (≈ 5.21 µM)
MIC [4]: 1.25 µg/mL (≈ 2.61 µM)
MIC [5]: 2.5 µg/mL (≈ 5.21 µM)
MIC [6]: 2.5 µg/mL (≈ 5.21 µM)
Solubility in various solvents ([7]; n-hexane, chloroform, benzene and water): slightly soluble or insolbule
Solubility in various solvents ([7]; pyridine, acetic acid, dimethyl sulfoxide, methanol, ethanol, acetone, ethyl acetate and dimethyl ether): soluble
absorption [8]: absorbed in concentrations which were equal to or in excess of the anti-bacterial activity
Concentration in tissue, Kidney ([8]; 3 hr): 6.55 µg/g
Concentration in tissue, Liver ([8]; 3 hr): 8.79 µg/g
Concentration in tissue, Muscle ([8]; 3 hr): 0.96 µg/g
Concentration in tissue, Plasma ([8]; 3 hr): 2100 ng/mL
Concentration in tissue, Kidney ([8]; 8 hr): 4.02 µg/g
Concentration in tissue, Liver ([8]; 8 hr): 5.14 µg/g
Concentration in tissue, Muscle ([8]; 8 hr): 1.12 µg/g
Concentration in tissue, Plasma ([8]; 8 hr): 1340 ng/mL
Concentration in tissue, Kidney ([8]; 24 hr): 1.13 µg/g
Concentration in tissue, Liver ([8]; 24 hr): 1.36 µg/g
Concentration in tissue, Muscle ([8]; 24 hr): < 0.25 µg/g
Concentration in tissue, Plasma ([8]; 24 hr): < 125 ng/mL
MIC [9]: 1.56 µg/mL (≈ 3.25 µM)
Storage life, Complete package ([10]; 0.01 ppm, pH 7.06, 30° C.): 5.0 days
Storage life, simplified package ([10]; 0.01 ppm, pH 7.06, 30° C.): 2.5 days
Storage life, Complete package ([10]; 0.1 ppm, pH 7.06, 30° C.): 7.0 days
Storage life, simplified package ([10]; 0.1 ppm, pH 7.06, 30° C.): 3.0 days
Storage life, Complete package ([10]; 1.0 ppm, pH 7.05, 30° C.): 9.0 days
Storage life, simplified package ([10]; 1.0 ppm, pH 7.05, 30° C.): 4.5 days
Storage life, Complete package ([10]; 10 ppm, pH 7.05, 30° C.): 14.0 days
Storage life, simplified package ([10]; 10 ppm, pH 7.05, 30° C.): 7.5 days
Storage life, Complete package ([10]; 50 ppm, pH 7.04, 30° C.): 18.0 days
Storage life, simplified package ([10]; 50 ppm, pH 7.04, 30° C.): 9.0 days
Storage life, Complete package ([10]; 100 ppm, pH 7.06, 30° C.): 24.0 days
Storage life, simplified package ([10]; 100 ppm, pH 7.06, 30° C.): 12.0 days
Damage ([11]; cucumber plants): Nil
Protection ([11]; sprayed before inoculation, 6 days): 36.8
MIC [12]: 0.05 µg/mL (≈ 0.104 µM)
therapeutic effect [13]: excellent therapeutic effect
Storage life ([14]; 0.1 ppm, pH of product 9.39, 30° C.): 6.0 days
Storage life ([14]; 1.0 ppm, pH of product 9.41, 30° C.): 8.1 days
Storage life ([14]; 10 ppm, pH of product 9.40, 30° C.): 10.0 days
Storage life ([14]; 50 ppm, pH of product 9.38, 30° C.): 16.0 days
Storage life ([14]; 100 ppm, pH of product 9.41, 30° C.): 20.0 days
preservability of the heated and steamed Chinese noodles ([14]; upon addition of UFC-N11): remarkably improved
MIC [15]: 1.56 µg/mL (≈ 3.25 µM)
Living bacteria ([16]; 0.05 ppm): 5.9e+06 g⁻¹
Storage life ([16]; 0.05 ppm, pH 5.14, 30° C.): 24 h
Living bacteria ([16]; 0.5 ppm): 2.8e+07 g⁻¹
Storage life ([16]; 0.5 ppm, pH 5.15, 30° C.): 30 h
Living bacteria ([16]; 5.0 ppm): 8.1e+06 g⁻¹
Storage life ([16]; 5.0 ppm, pH 5.15, 30° C.): 43 h
Living bacteria ([16]; 50 ppm): 5.5e+07 g⁻¹
Storage life ([16]; 50 ppm, pH 5.16, 30° C.): 56 h
Prevention ([17]; 20 ppm): 26.70%
Prevention ([17]; 40 ppm): 33.9%
Damage ([17]; in vivo): nil
MIC [18]: 0.16 µg/mL (≈ 0.334 µM)
MIC [19]: 0.31 µg/mL and 0.16 µg/mL
antibacterial activity [19]: excellent antibacterial activity
